Patent US20120010148A1, “COMBINATION THERAPIES USING NAP” (ALLON THERAPEUTICS INC., priority 2008, published 2012)
Entries after “also recorded” stand apart in the source; their conditions may differ.

Tests used:
[1] = tested on: STOP+/− mice; assay: Social recognition test; assay type: in vivo; details: 8-month-old STOP+/− mice; NAP 0.5 microgram/mouse/day, clozapine 3 mg/kg/day, FIG. 16
Experimental: In the social recognition test, 8-month-old mice (STOP+/−) were habituated for 20 minutes in a cage and then exposed to a new juvenile mouse (1.5-month old) for one minute—followed by a 30-minute interval and another 1 minute exposure four times (familiarizing the test subject with the juvenile mouse). The fifth exposure session included a novel juvenile mouse. Time spent interacting with the juvenile mouse was recorded.

[2] = tested on: STOP+/+ mice; assay: Behavioral tests in control STOP+/+ mice; assay type: in vivo, mouse
Description: For the initial comparisons of STOP+/− mice to STOP+/+ mice (littermates), each experimental group included 10-12 mice, 4-12 month-old; mean age 6 months, there were no highly significant differences between the tested ages in terms of the behavioral outcome). The STOP+/+ and STOP+/− male mice received daily (5 days a week) NAP nasal application vehicle as follows below for the duration of 7-10 weeks.
The NAP vehicle solution (termed DD), included the following ingredients (per milliliter): 7.5 mg of NaCl, 1.7 mg of citric acid monohydrate, 3 mg of disodium phosphate dihydrate, and 0.2 mg of benzalkonium chloride solution (50%) (Alcalay R N et al., Neurosci Lett, 361(1-3): 128-131 (2004)). […]
Locomotor activity was measured in 5 consecutive sessions, 3 minutes each and the mean path length in cm of each mouse in the 3 minute sessions per the entire 15 minute period of observation in open field (80 cm diameter) was determined. […]
The test is based on visual discrimination between two different objects in an arena of 30 cm×40 cm. […] One hour after the daily intranasal NAP treatment, or clozapine injection, each male mouse was exposed to two identical objects for 5 minutes and the time spent sniffing/touching each object was measured (first daily session). […] The data was analyzed using two different methods. […]

[3] = tested on: cell cultures; details: cited from earlier work
[4] = tested on: animal models simulating parts of the Alzheimer's disease pathology; details: in vivo; cited from earlier work
[5] = tested on: normal aging rats; details: intranasal administration; cited from earlier work
[6] = tested on: schizophrenia patients; details: human clinical trial; cited from earlier work

SMILES: CC[C@H](C)[C@H](NC(=O)[C@H](CO)NC(=O)[C@@H](NC(=O)[C@@H]1CCCN1C(=O)[C@H](C)NC(=O)[C@@H](N)CC(N)=O)C(C)C)C(=O)N1CCC[C@H]1C(=O)N[C@@H](CCC(N)=O)C(=O)O [NAP]
- social recognition behavior [1]: partially ameliorated
- open field locomotor activity in control mice ([2]; STOP+/+ mice, NAP intranasal 0.5 μg/mouse/day): trend; also recorded: non-significant effect
- cognitive performance of control mice ([2]; control mice treated with NAP): did not show improvement in their cognitive performance
- neuroprotective activity against a wide variety of toxins [3]: neuroprotective activity at femtomolar concentrations
- protection in Alzheimer's disease pathology models [4]: protective
- performance in the Morris water maze [5]: improved performance
- activity in schizophrenia patients [6]: shown activity
